The values below come from paper PMC3499409, “Direct Interaction between EgFABP1, a Fatty Acid Binding Protein from Echinococcus granulosus, and Phospholipid Membranes” (PLoS Neglected Tropical Diseases, 2012).

Type in all cases: binding
Test [1] has as its target T1, EgFABP1 (Echinococcus granulosus, UniProt Q02970).
T1 construct: gene FABP1; recombinant EgFABP1 from pET11b in E. coli, delipidated
Nature of the test: fluorescence titration of the anthroyloxy fatty acid with protein.

In test [2] the target is T2, EgFABP1 (Echinococcus granulosus, UniProt Q02970).
T2 construct: gene FABP1; recombinant EgFABP1 from pET11b in E. coli
T2 sequence (Q02970 1-133): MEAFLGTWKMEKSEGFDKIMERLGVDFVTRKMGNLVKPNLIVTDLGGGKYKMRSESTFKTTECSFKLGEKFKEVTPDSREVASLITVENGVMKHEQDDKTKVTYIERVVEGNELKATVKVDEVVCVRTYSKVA
Put plainly: protection from limited proteolysis (clostripain); GC of co-purified fatty acids.

Test [3] has as its target T2, EgFABP1. Nature of the test: near-UV CD change; protection from limited proteolysis (clostripain); GC of co-purified fatty acids.

The Kd is the concentration at which binding is half-saturated. A low value points to a tighter complex. Compound `CCCCCCC(CCCCCCCCCCC(=O)O)OC(=O)c1c2ccccc2cc2ccccc12` (stereo not shown) [12AS, 12-(9-anthroyloxy)stearic acid] displayed a Kd on EgFABP1 [1] of 120 ± 20 nM.
On to `CCCCCCCCCCCCCC(=O)O` [myristic acid], for which the “protection from limited proteolysis (clostripain); GC of co-purified fatty acids” value on EgFABP1 [2] is “Results show that binding of FAs gives EgFABP1 significant relative protection against cleavage”.
Consider `CCCCCCCC/C=C\CCCCCCCC(=O)O` [oleic acid], for which the “near-UV CD change; protection from limited proteolysis (clostripain); GC of co-p” value on EgFABP1 [3] is recorded as “the near-UV CD spectra (Figure S1) showed differences upon ligand binding, especially with oleic acid”.
As for `O=C(O)CCCCCCCCCCCCCCCOC(=O)c1c2ccccc2cc2ccccc12` [16AP, 16-(9-anthroyloxy)palmitic acid], on EgFABP1 [1], the Kd was 13 ± 6 nM.
